Marks after values point to notes of the source that are not given here.
System: Landrace x Large White reserve sows
Assay: Heat detection: estrus rate and estrus time in gilts, different doses (Example 2)
Assay type: in vivo, pigs
Settings: gilts
From the text: Landrace x Large White reserve sows, about 230 days old, were randomly divided into a batch farrowing with FTAI and batch farrowing with FTAI combined with different doses of 1-[bis(4-cyanophenyl)methyl]-1,2,4-triazole groups, and during the experiment, the experimental sows in each group were fed regularly and gained free access to water according to the requirements of feeding management in the farm.
Referring to the dosage of 1-[bis(4-cyanophenyl)methyl]-1,2,4-triazole in clinical medicine and using standard weight-dosage conversion, the recommended dosage of 1-[bis(4-cyanophenyl)methyl]-1,2,4-triazole for sows was 50-150 μg/kg·BW/day, orally for consecutive 5 days, as derived by conversion. In addition, the applicant previously studied uniparous cows, and in the ovulation induction scheme, the reference dosage of 1-[bis(4-cyanophenyl)methyl]-1,2,4-triazole was 60-200 μg/kg·BW, administered in a single dose; furthermore, by means of conversion in conjunction with the dosage for model animals (mice) previously in the laboratory, various dosages were designed. The treatment methods of hormones and drugs for sows in each group were as follows: • batch farrowing with FTAI: the sows were fed with an altrenogest oral solution at 20 mg/animal at the same time every day, for 18 days; PMSG at 1000 IU/animal was injected intramuscularly 42 h after the last feeding with altrenogest, GnRH at 100 μg/animal was injected intramuscularly 80 h after the injection of PMSG, a first timed insemination was performed 24 h after the injection of GnRH, and a second timed insemination was performed 16 h after the first insemination.
(§1) Treatment group 1: the hormone treatment and mating schemes for gilts were the same as FTAI. The difference lay in that PMSG at 1000 IU/gilt was injected intramuscularly 42 h after the last feeding with altrenogest, and 1-[bis(4-cyanophenyl)methyl]-1,2,4-triazole at 12 μg/kg·BW/day was administered orally 8 h after the injection of PMSG, for 1 day.
as §1, with “2:” for “1:”, “2 days.” for “1 day.”
as §1, with “3:” for “1:”, “20” for “12”
as §1, with “4:” for “1:”, “sows” for “gilts”, “1-[bis (4-cyanophenyl)methyl]-1,2,4-triazole” for “1-[bis(4-cyanophenyl)methyl]-1,2,4-triazole”, “20” for “12”, “2 days.” for “1 day.”
as §1, with “5:” for “1:”, “IU/animal” for “IU/gilt”, “20” for “12”, “3 days.” for “1 day.”
as §1, with “6:” for “1:”, “IU/animal” for “IU/gilt”, “20” for “12”, “5 days.” for “1 day.”
Treatment group 7: the hormone treatment and mating schemes for gilts were the same as FTAI. […]

[1] = Example 2 Treatment group 1: 12 μg/kg·BW/day orally, 1 day
[2] = Example 2 Treatment group 2: 12 μg/kg·BW/day orally, 2 days
[3] = Example 2 Treatment group 3: 20 μg/kg·BW/day orally, 1 day
[4] = Example 2 Treatment group 4: 20 μg/kg·BW/day orally, 2 days
[5] = Example 2 Treatment group 5: 20 μg/kg·BW/day orally, 3 days
[6] = Example 2 Treatment group 6: 20 μg/kg·BW/day orally, 5 days
[7] = Example 2 Treatment group 7: 40 μg/kg·BW/day orally, 1 day
[8] = Example 2 Treatment group 8: 40 μg/kg·BW/day orally, 5 days
[9] = Example 2 Treatment group 9: 80 μg/kg·BW/day orally, 5 days
[10] = Example 2 Treatment group 10: 160 μg/kg·BW/day orally, 5 days

In the case of N#Cc1ccc(C(c2ccc(C#N)cc2)n2cncn2)cc1 [1-[bis(4-cyanophenyl)methyl]-1,2,4-triazole], the Estrus number [1] is reported as 27, the “Estrus rate (%)” value [1] is reported as 90.00^a % and the “Interval from stopping taking Altrenogest to estrus (days)” value (“Interval” below) [1] is reported as 6.13 ± 0.12^b days. For the same compound, the Estrus number [2] was 23, the “Estrus rate (%)” value [2] was 85.19^a % and the “Interval” value [2] was 6.07 ± 0.13^b days. The Estrus number [3] was 22, the “Estrus rate (%)” value [3] was 88.00^a % and the “Interval” value [3] was 6.11 ± 0.12^b days. The Estrus number [4] was 21, the “Estrus rate (%)” value [4] was 84.00^a % and the “Interval” value [4] was 6.07 ± 0.15^b days. The Estrus number [5] was 24, the “Estrus rate (%)” value [5] was 92.31^a % and the “Interval” value [5] was 6.19 ± 0.16^b days. For the same compound, the Estrus number [6] was 20, the “Estrus rate (%)” value [6] was 76.92^b % and the “Interval” value [6] was 6.70 ± 0.16^a days. For the same compound, the Estrus number [7] was 22, the “Estrus rate (%)” value [7] was 84.61^a % and the “Interval” value [7] was 6.77 ± 0.14^a days. The Estrus number [8] was 4, the “Estrus rate (%)” value [8] was 16.67^b % and the “Interval” value [8] was 6.25 ± 0.14^b days. For the same compound, the Estrus number [9] was 0, the “Estrus rate (%)” value [9] was 0.00^b % and the Estrus number [10] was 0. The “Estrus rate (%)” value [10] was 0.00^b %, the “Number of estrous animals at different times after stopping Altrenogest (day/animal)” value (day 4.5, Example 2 Treatment group 1: 12 μg/kg·BW/day orally, 1 day) was 0 animal and the “Number of estrous animals at different times after stopping Altrenogest (day/animal)” value (day 4.5, Example 2 Treatment group 2: 12 μg/kg·BW/day orally, 2 days) was 0 animal. For the same compound, the “Number of estrous animals at different times after stopping Altrenogest (day/animal)” value (day 4.5, Example 2 Treatment group 3: 20 μg/kg·BW/day orally, 1 day) was 0 animal, the “Number of estrous animals at different times after stopping Altrenogest (day/animal)” value (day 4.5, Example 2 Treatment group 4: 20 μg/kg·BW/day orally, 2 days) was 0 animal and the “Number of estrous animals at different times after stopping Altrenogest (day/animal)” value (day 4.5, Example 2 Treatment group 5: 20 μg/kg·BW/day orally, 3 days) was 0 animal. For the same compound, the “Number of estrous animals at different times after stopping Altrenogest (day/animal)” value (day 4.5, Example 2 Treatment group 6: 20 μg/kg·BW/day orally, 5 days) was 0 animal, the “Number of estrous animals at different times after stopping Altrenogest (day/animal)” value (day 4.5, Example 2 Treatment group 7: 40 μg/kg·BW/day orally, 1 day) was 0 animal and the “Number of estrous animals at different times after stopping Altrenogest (day/animal)” value (day 4.5, Example 2 Treatment group 8: 40 μg/kg·BW/day orally, 5 days) was 0 animal. The “Number of estrous animals at different times after stopping Altrenogest (day/animal)” value (day 5, Example 2 Treatment group 1: 12 μg/kg·BW/day orally, 1 day) was 1 animal, the “Number of estrous animals at different times after stopping Altrenogest (day/animal)” value (day 5, Example 2 Treatment group 2: 12 μg/kg·BW/day orally, 2 days) was 0 animal and the “Number of estrous animals at different times after stopping Altrenogest (day/animal)” value (day 5, Example 2 Treatment group 3: 20 μg/kg·BW/day orally, 1 day) was 0 animal. For the same compound, the “Number of estrous animals at different times after stopping Altrenogest (day/animal)” value (day 5, Example 2 Treatment group 4: 20 μg/kg·BW/day orally, 2 days) was 0 animal, the “Number of estrous animals at different times after stopping Altrenogest (day/animal)” value (day 5, Example 2 Treatment group 5: 20 μg/kg·BW/day orally, 3 days) was 2 animal and the “Number of estrous animals at different times after stopping Altrenogest (day/animal)” value (day 5, Example 2 Treatment group 6: 20 μg/kg·BW/day orally, 5 days) was 1 animal. For the same compound, the “Number of estrous animals at different times after stopping Altrenogest (day/animal)” value (day 5, Example 2 Treatment group 7: 40 μg/kg·BW/day orally, 1 day) was 0 animal, the “Number of estrous animals at different times after stopping Altrenogest (day/animal)” value (day 5, Example 2 Treatment group 8: 40 μg/kg·BW/day orally, 5 days) was 0 animal and the “Number of estrous animals at different times after stopping Altrenogest (day/animal)” value (day 5.5, Example 2 Treatment group 1: 12 μg/kg·BW/day orally, 1 day) was 8 animal. The “Number of estrous animals at different times after stopping Altrenogest (day/animal)” value (day 5.5, Example 2 Treatment group 2: 12 μg/kg·BW/day orally, 2 days) was 9 animal, the “Number of estrous animals at different times after stopping Altrenogest (day/animal)” value (day 5.5, Example 2 Treatment group 3: 20 μg/kg·BW/day orally, 1 day) was 7 animal and the “Number of estrous animals at different times after stopping Altrenogest (day/animal)” value (day 5.5, Example 2 Treatment group 4: 20 μg/kg·BW/day orally, 2 days) was 8 animal.

Source: patent publication US12678488B2, “Batch management method for improving farrowing rate or number of piglets born alive in swine” (priority 2024, dated 2026)
